Experimental data reported in ChEMBL document CHEMBL5346941, “Design, synthesis and evaluation of novel monoamine oxidase B (MAO-B) inhibitors with improved pharmacokinetic properties for Parkinson's disease” (Eur J Med Chem, 2023).
One block for each molecule: values may come before it.

Assays:
[1] = target: T1, Amine oxidase [flavin-containing] B (Homo sapiens, UniProt P27338); assay: Inhibition of recombinant human MAO-B expressed in Sf9 cells using p-tyramine as substrate preincubated for 15 mins followed by substrate addition and measured after 60 mins by luciferin based luminescence analysis
T1 sequence (P27338 whole entry): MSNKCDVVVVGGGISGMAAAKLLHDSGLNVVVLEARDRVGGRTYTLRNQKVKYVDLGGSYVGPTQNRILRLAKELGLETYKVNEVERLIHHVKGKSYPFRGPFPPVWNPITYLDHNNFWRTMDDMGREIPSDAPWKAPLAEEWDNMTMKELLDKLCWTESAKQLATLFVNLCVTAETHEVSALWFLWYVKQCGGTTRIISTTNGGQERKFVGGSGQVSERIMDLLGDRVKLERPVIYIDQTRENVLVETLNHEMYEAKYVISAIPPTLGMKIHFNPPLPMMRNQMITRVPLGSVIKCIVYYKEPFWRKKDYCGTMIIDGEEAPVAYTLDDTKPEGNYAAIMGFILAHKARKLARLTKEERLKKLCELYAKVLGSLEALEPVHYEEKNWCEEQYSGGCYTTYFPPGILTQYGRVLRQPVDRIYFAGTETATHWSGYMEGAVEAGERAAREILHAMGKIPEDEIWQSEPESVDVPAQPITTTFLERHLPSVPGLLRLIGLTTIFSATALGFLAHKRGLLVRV

[2] = target: T2, Amine oxidase [flavin-containing] A (Homo sapiens, UniProt P21397); assay: Inhibition of recombinant human MAO-A expressed in Sf9 cells using […] as substrate preincubated for 15 mins followed by substrate addition and measured after 60 mins by luciferin based luminescence analysis
T2 sequence (P21397 whole entry): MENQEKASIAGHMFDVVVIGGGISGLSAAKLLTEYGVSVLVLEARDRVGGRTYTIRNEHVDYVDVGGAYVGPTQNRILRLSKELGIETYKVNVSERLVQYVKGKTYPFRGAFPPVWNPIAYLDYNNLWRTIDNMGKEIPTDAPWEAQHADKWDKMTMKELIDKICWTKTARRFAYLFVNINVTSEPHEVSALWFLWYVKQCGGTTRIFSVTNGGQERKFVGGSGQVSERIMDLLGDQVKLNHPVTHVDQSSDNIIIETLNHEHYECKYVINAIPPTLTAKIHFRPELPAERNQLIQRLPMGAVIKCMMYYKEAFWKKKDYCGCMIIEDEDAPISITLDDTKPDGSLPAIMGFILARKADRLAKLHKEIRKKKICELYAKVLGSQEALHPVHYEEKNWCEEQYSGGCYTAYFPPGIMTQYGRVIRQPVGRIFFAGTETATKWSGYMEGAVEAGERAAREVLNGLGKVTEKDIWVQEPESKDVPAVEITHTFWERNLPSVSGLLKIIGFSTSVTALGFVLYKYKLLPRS

[3] = Cmax in fasted Sprague-Dawley rat at 1 mg/kg, iv measured for 24 hrs; type: ADME, organism-based; set-up: dose 1 mg/kg, time 24 hrs, route iv; details: in vivo
[4] = Elimination half life in fasted ICR mouse at 2 mg/kg, iv measured for 24 hrs; type: ADME, organism-based; details: in vivo, read-out: beta t1/2 (converted)
[5] = Bioavailability in fasted ICR mouse at 5 mg/kg, IG measured for 24 hrs; type: ADME, organism-based; details: in vivo, po
[6] = Volume of distribution at steady state in fasted ICR mouse at 2 mg/kg, iv measured for 24 hrs; type: ADME, organism-based; details: in vivo, read-out: Vdss
[7] = AUC (0 to t) in fasted ICR mouse at 2 mg/kg, iv measured for 24 hrs; type: ADME, organism-based; set-up: dose 2 mg/kg, time 24 hrs, route iv; details: in vivo
[8] = Cmax in fasted Sprague-Dawley rat at 5 mg/kg, IG measured for 24 hrs; type: ADME, organism-based; set-up: dose 5 mg/kg, time 24 hrs, route ig; details: in vivo, po
[9] = Cmax in fasted ICR mouse at 5 mg/kg, IG measured for 24 hrs; type: ADME, organism-based; set-up: dose 5 mg/kg, time 24 hrs, route ig; details: in vivo, po
[10] = Cmax in fasted ICR mouse at 2 mg/kg, iv measured for 24 hrs; type: ADME, organism-based; set-up: time 24 hrs, dose 2 mg/kg, route iv; details: in vivo
[11] = Elimination half life in fasted ICR mouse at 5 mg/kg, IG measured for 24 hrs; type: ADME, organism-based; details: in vivo, po, read-out: beta t1/2 (converted)
[12] = AUC (0 to t) in fasted ICR mouse at 5 mg/kg, IG measured for 24 hrs; type: ADME, organism-based; set-up: dose 5 mg/kg, time 24 hrs, route ig; details: in vivo, po
[13] = Clearance in fasted ICR mouse at 2 mg/kg, iv measured for 24 hrs; type: ADME, organism-based; details: in vivo
[14] = AUC (0 to t) in fasted Sprague-Dawley rat at 5 mg/kg, IG measured for 24 hrs; type: ADME, organism-based; set-up: dose 5 mg/kg, time 24 hrs, route ig; details: in vivo, po
[15] = Bioavailability in fasted Sprague-Dawley rat at 5 mg/kg, IG measured for 24 hrs; type: ADME, organism-based; details: in vivo, po
[16] = Volume of distribution at steady state in fasted Sprague-Dawley rat at 1 mg/kg, iv measured for 24 hrs; type: ADME, organism-based; details: in vivo, read-out: Vdss
[17] = Elimination half life in fasted Sprague-Dawley rat at 5 mg/kg, IG measured for 24 hrs; type: ADME, organism-based; details: in vivo, po, read-out: beta t1/2 (converted)
[18] = AUC (0 to t) in fasted Sprague-Dawley rat at 1 mg/kg, iv measured for 24 hrs; type: ADME, organism-based; set-up: dose 1 mg/kg, time 24 hrs, route iv; details: in vivo
[19] = Elimination half life in fasted Sprague-Dawley rat at 1 mg/kg, iv measured for 24 hrs; type: ADME, organism-based; details: in vivo, read-out: beta t1/2 (converted)
[20] = Clearance in fasted Sprague-Dawley rat at 1 mg/kg, iv measured for 24 hrs; type: ADME, organism-based; details: in vivo
[21] = Ratio of drug concentration in Sprague-Dawley brain to plasma at 5 mg/kg, ip measured after 120 mins by LC-MS/MS analysis; type: ADME, organism-based; details: rat, read-out: BPR
[22] = Drug concentration in Sprague-Dawley rat plasma at 5 mg/kg, ip measured after 60 mins by LC-MS/MS analysis; type: ADME, organism-based
[23] = Metabolic stability in rat liver microsomes assessed as half life at 1 uM incubated for 60 mins in presence of NADPH by LC-MS/MS analysis; type: ADME, Microsome
[24] = Metabolic stability in rat liver microsomes assessed as intrinsic clearance at 1 uM incubated for 60 mins in presence of NADPH by LC-MS/MS analysis; type: ADME, Microsome; details: read-out: CLH
[25] = Ratio of drug concentration in Sprague-Dawley brain to plasma at 5 mg/kg, ip measured after 15 mins by LC-MS/MS analysis; type: ADME, organism-based; details: rat, read-out: BPR
[26] = Drug concentration in Sprague-Dawley rat brain at 5 mg/kg, ip measured after 60 mins by LC-MS/MS analysis; type: ADME, organism-based; details: read-out: Ct
[27] = Metabolic stability in dog liver microsomes assessed as half life at 1 uM incubated for 60 mins in presence of NADPH by LC-MS/MS analysis; type: ADME, Canis lupus familiaris, Microsome
[28] = Metabolic stability in mouse liver microsomes assessed as intrinsic clearance at 1 uM incubated for 60 mins in presence of NADPH by LC-MS/MS analysis; type: ADME, Microsome; details: read-out: CLH
[29] = Drug concentration in Sprague-Dawley rat plasma at 5 mg/kg, ip measured after 15 mins by LC-MS/MS analysis; type: ADME, organism-based
[30] = Metabolic stability in dog liver microsomes assessed as intrinsic clearance at 1 uM incubated for 60 mins in presence of NADPH by LC-MS/MS analysis; type: ADME, Canis lupus familiaris, Microsome; details: read-out: CLH
[31] = Ratio of drug concentration in Sprague-Dawley brain to plasma at 5 mg/kg, ip measured after 60 mins by LC-MS/MS analysis; type: ADME, organism-based; details: rat, read-out: BPR
[32] = Drug concentration in Sprague-Dawley rat brain at 5 mg/kg, ip measured after 15 mins by LC-MS/MS analysis; type: ADME, organism-based; details: read-out: Ct
[33] = Metabolic stability in human liver microsomes assessed as intrinsic clearance at 1 uM incubated for 60 mins in presence of NADPH by LC-MS/MS analysis; type: ADME, Microsome; details: read-out: CLH
[34] = Metabolic stability in mouse liver microsomes assessed as half life at 1 uM incubated for 60 mins in presence of NADPH by LC-MS/MS analysis; type: ADME, Microsome
[35] = Drug concentration in Sprague-Dawley rat plasma at 5 mg/kg, ip measured after 120 mins by LC-MS/MS analysis; type: ADME, organism-based
[36] = Metabolic stability in human liver microsomes assessed as half life at 1 uM incubated for 60 mins in presence of NADPH by LC-MS/MS analysis; type: ADME, Microsome
[37] = Drug concentration in Sprague-Dawley rat brain at 5 mg/kg, ip measured after 120 mins by LC-MS/MS analysis; type: ADME, organism-based; details: read-out: Ct

Compound: NC(=O)[C@@H]1C[C@H](F)CN1Cc1ccc(OCc2cccc(F)c2)cc1
Cmax ([3]; 24 h): 69.1 ng/mL
half-life [4]: 0.55 h
bioavailability [5]: 77.4%
Vd [6]: 2.6 L/kg
AUC(0-t) at 24 h [7]: 561 ng·h/mL
Cmax [8]: 690 ng/mL
Cmax [9]: 833 ng/mL
Cmax [10]: 613 ng/mL
half-life [11]: 0.78 h
AUC(0-t) at 24 h [12]: 1080 ng·h/mL
clearance [13]: 63.3 mL/min/kg

Compound: C[C@H](NCc1ccc(OCc2cccc(F)c2)cc1)C(N)=O [SAFINAMIDE]
Cmax ([3]; Sprague-Dawley, read-out: Cmax): 244 ng/mL
half-life [4]: 1.59 h
bioavailability [5]: 129%
Vd [6]: 4.53 L/kg
Kp at 2 h [21]: 15.1
concentration at 1 h [22]: 353 ng/mL
half-life at 1 µM [23]: 0.331 h
CLint scaled at 1 µM [24]: 38.3 mL/min/kg
Kp at 0.25 h [25]: 10.7
AUC(0-t) at 24 h [7]: 930 ng·h/mL
Cmax [8]: 148 ng/mL
Cmax [9]: 755 ng/mL
AUC(0-t) at 24 h [14]: 536 ng·h/mL
concentration at 1 h [26]: 5100 ng/g
half-life at 1 µM [27]: 1.1 h
bioavailability [15]: 48.5%
CLint scaled at 1 µM [28]: 43.2 mL/min/kg
Vd [16]: 5.26 L/kg
concentration at 0.25 h [29]: 371 ng/mL
CLint scaled at 1 µM [30]: 43.2 mL/min/kg
Kp at 1 h [31]: 14.4
concentration at 0.25 h [32]: 3960 ng/g
Cmax [10]: 429 ng/mL
half-life [11]: 2.78 h
half-life [17]: 2.62 h
CLint scaled at 1 µM [33]: 2.8 mL/min/kg
half-life at 1 µM [34]: 1.1 h
concentration at 2 h [35]: 144 ng/mL
AUC(0-t) at 24 h [12]: 3050 ng·h/mL
AUC(0-t) at 24 h [18]: 233 ng·h/mL
half-life [19]: 1.18 h
half-life at 1 µM [36]: 8.94 h
clearance [13]: 34.7 mL/min/kg
concentration at 2 h [37]: 2170 ng/g
clearance [20]: 70.6 mL/min/kg

Compound: COc1ccc(-c2cc3cc(CN[C@@H](C)C(N)=O)ccc3o2)cc1
IC50 [1]: > 10 µM
IC50 [2]: 2.78 µM

Compound: COc1cccc(-c2cc3cc(CN[C@@H](C)C(N)=O)ccc3o2)c1
IC50 [1]: 4.55 µM
IC50 [2]: 5.91 µM

More lines, in order of falling IC50 [1], values ahead:

IC50 [1]: 9.49 µM
IC50 [2]: 6.21 µM
Compound: COc1ccccc1-c1cc2cc(CN[C@@H](C)C(N)=O)ccc2o1

IC50 [1]: 0.833 µM
IC50 [2]: > 10 µM
Compound: NC(=O)[C@@H]1CC(F)(F)CN1Cc1ccc2oc(-c3ccc(F)cc3)cc2c1

IC50 [1]: 0.103 µM
IC50 [2]: > 10 µM
Compound: COc1cccc(-c2cc3cc(CN4CC[C@H]4C(N)=O)ccc3o2)c1

Cmax ([3]; Sprague-Dawley, read-out: Cmax): 360 ng/mL
Cmax [8]: 167 ng/mL
AUC(0-t) at 24 h [14]: 672 ng·h/mL
bioavailability [15]: 86.7%
Vd [16]: 2.39 L/kg
IC50 [1]: 0.073 µM
half-life [17]: 1.15 h
IC50 [2]: > 10 µM
AUC(0-t) at 24 h [18]: 155 ng·h/mL
half-life [19]: 0.374 h
clearance [20]: 106 mL/min/kg
Compound: NC(=O)[C@@H]1CCN1Cc1ccc2oc(-c3ccccc3F)cc2c1
